pIC50: −log10 of the molar value. Where two headings read alike, the source gives them in different places.
Legend:
Assay type in all cases: cell-based
RL = assay: Solid tumour and haematological malignancy assay (CellTiterGlo); conditions: Homo sapiens; for pIC50: read-out: IC50 (absolute IC50); for Emax: read-out: MI %
Outline: (§1)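 Cells were exposed to compound for 72 hr under standard growth conditions, and viability was then read by CellTiterGlo luminescence. Treatment used a 9-point, 3.16-fold titration in duplicate, with a lowest final concentration of 19.9 nM and 0.5% final DMSO.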

HS445 = assay: as above; conditions: for pIC50: read-out: IC50 (absolute IC50); for Emax: read-out: MI %
Outline: as §1

RPMI-8226 = assay: as above; conditions: Homo sapiens; for pIC50: read-out: IC50 (absolute IC50); for Emax: read-out: MI %
Outline: as §1

NCI-H929 = assay: as above; conditions: Homo sapiens; for pIC50: read-out: IC50 (absolute IC50); for Emax: read-out: MI %
Outline: as §1

Z138 = assay: as above; conditions: Homo sapiens; for pIC50: read-out: IC50 (absolute IC50); for Emax: read-out: MI %
Outline: as §1

Jurkat = assay: as above; conditions: Homo sapiens, read-out: IC50 (absolute IC50)
Outline: as §1

CCRF-CEM = assay: CellTiterGlo viability assay, initial screening; conditions: Homo sapiens, read-out: IC50 (relative IC50)
Outline: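 Under standard growth conditions with 0.5% final DMSO, cells received pre-warmed compound-containing media over nine 3.16-fold dilutions reaching 19.9 nM. After roughly 72 hr, CellTiter-Glo was used to quantify viability; all treatments were done in duplicate.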

SMILES | pIC50 (RL; 72 h) | pIC50 (HS445; Hs 445, 72 h) | pIC50 (RPMI-8226; RPMI-8226, 72 h) | pIC50 (NCI-H929; NCI-H929, 72 h) | Emax (NCI-H929; NCI-H929, 72 h) | pIC50 (Z138; Z-138, 72 h) | Emax (Z138; Z-138, 72 h) | pIC50 (Jurkat; 72 h) | pIC50 (CCRF-CEM; 72 h) | Emax (RL; 72 h) | Emax (HS445; Hs 445, 72 h) | Emax (RPMI-8226; RPMI-8226, 72 h) | also measured
C[C@H](NP(=O)(OC[C@@H]1C[C@@H](O)[C@H](n2cnc3c(N)ncnc32)O1)Oc1cccc2ccccc12)C(=O)OCc1ccccc1 (stereo partly drawn) [B, (2S)-benzyl 2-(((((2S,4R,5R)-5-(6-amino-9H-purin-9-yl)-4-hydroxytetrahydrofuran-2-yl)methoxy)(naphthalen-1-yloxy)phosphoryl)amino)propanoate] | 5.30 to 7.00 | 4.82 to 5.30 | 4.82 to 5.30 | 5.30 to 7.00 | 99% | 4.82 to 5.30 | 100% | 5.30 to 7.00 | 5.30 to 7.00 |  |  |  | 
Nc1ncnc2c1ncn2[C@@H]1O[C@H](COP(=O)(NCC(=O)OCc2ccccc2)Oc2ccccc2)C[C@H]1O (stereo partly drawn) [C, Benzyl 2-(((((2S,4R,5R)-5-(6-amino-9H-purin-9-yl)-4-hydroxytetrahydrofuran-2-yl)methoxy)(phenoxy)phosphoryl)amino)acetate] | 4.82 to 5.30 | 4.00 to 4.82 | 4.00 to 4.82 | 4.82 to 5.30 | 104% | 4.82 to 5.30 | 100% | 4.82 to 5.30 | 4.82 to 5.30 | 100% | 102% | 103% | 
C[C@H](NP(=O)(OC[C@@H]1CC(O)[C@H](n2cnc3c(N)ncnc32)O1)Oc1ccccc1)C(=O)OCc1ccccc1 (stereo partly drawn) [Compound A, 3′-deoxyadenosine-5′-O-[phenyl(benzyloxy-L-alaninyl)] phosphate] | 5.30 to 7.00 | 4.00 to 4.82 | 4.82 to 5.30 | 4.82 to 5.30 | 100% | 4.00 to 4.82 | 95% | 5.30 to 7.00 | 5.30 to 7.00 | 93% | 98% | 96% | 
Nc1ncnc2c1ncn2[C@@H]1O[C@H](CO)C[C@H]1O [Cordycepin, 3′-deoxyadenosine, reference compound] |  |  |  |  |  |  |  |  |  |  |  |  | pIC50 (RL; 72 hr): < 4.00; Emax (RL; 72 hr): 17%; pIC50 (HS445; Hs 445, HS445, 72 hr): < 4.00; Emax (HS445; Hs 445, HS445, 72 hr): 2%; pIC50 (RPMI-8226; RPMI-8226, 72 hr): < 4.00; Emax (RPMI-8226; RPMI-8226, 72 hr): 1%; pIC50 (NCI-H929; NCI-H929, 72 hr): < 4.00; Emax (NCI-H929; NCI-H929, 72 hr): 24%; pIC50 (Z138; Z-138, Z138, 72 hr): 4.82 to 5.30; Emax (Z138; Z-138, Z138, 72 hr): 95%; pIC50 (Jurkat; 72 hr): < 4.00; pIC50 (CCRF-CEM; 72 hr): 4.00 to 4.82
COC(=O)C(C)(C)NP(=O)(OC[C@@H]1C[C@@H](O)[C@H](n2cnc3c(N)ncnc32)O1)Oc1cccc2ccccc12 (stereo partly drawn) [E, Methyl 2-(((((2S,4R,5R)-5-(6-amino-9H-purin-9-yl)-4-hydroxytetrahydrofuran-2-yl)-methoxy)(naphthalen-1-yloxy)phosphoryl)amino)-2-methylpropanoate] | 4.82 to 5.30 | 4.00 to 4.82 | 4.00 to 4.82 | 4.00 to 4.82 |  | 4.00 to 4.82 |  | 4.82 to 5.30 | 4.00 to 4.82 |  |  |  | 
CCOC(=O)CCc1ccccc1OP(=O)(N[C@@H](C)C(=O)OCc1ccccc1)OC[C@@H]1C[C@@H](O)[C@H](n2cnc3c(N)ncnc32)O1 (stereo partly drawn) [F, (2S)-benzyl 2-(((((2S,4R,5R)-5-(6-amino-9H-purin-9-yl)-4-hydroxytetrahydrofuran-2-yl)methoxy)(2-(3-ethoxy-3-oxopropyl)phenoxy)phosphoryl)amino)propanoate] | 4.82 to 5.30 | 4.00 to 4.82 | 4.00 to 4.82 | 4.82 to 5.30 | 100% | 4.00 to 4.82 |  | 5.30 to 7.00 |  | 90% |  |  | 

From patent US10570168B2, “2′ and/or 5′ amino-acid ester phosphoramidate 3′-deoxy adenosine derivatives as anti- cancer compounds” (NuCana plc, priority 2014, dated 2020)
